Reference: patent publication US20170166592A1, “AZA-BENZIMIDAZOLE INHIBITORS OF PAD4” (Padlock Therapeutics, Inc., priority 2015, published 2017)
Structures can show the parent of a compound that is named as a salt. Where two headings read alike, the source gives them in different places.

Tests used:
hPAD4 = hPAD4 (Homo sapiens, UniProt Q9UM07); test: PAD4 inhibition assay, RapidFire mass spectrometry (hPAD4 RFMS); format: biochemical
Method: Compounds of the present invention were assayed as inhibitors of PAD4 using the assay protocol described below.
Compounds were solubilised in 100% DMSO to achieve 100 mM final compound concentration. Compound stock solutions were stored at RT. A series of dilutions were prepared in DMSO and mixed 8 times with 20 μL, mixing volume. Final assay conditions were as follows:
Assay buffer (as aforementioned): 100 mM Tris-HCl (pH 7.6), 2 mM DTT, 1 mM CaCl2
Final concentrations: • 100 nM hPAD4 enzyme • 50 μM (8-fold sub-Km) substrate peptide • 0.5% DMSO
Total incubation time: 65 mins at 37° C.
Stop solution: 40 μl 5% TCA in ACN
0.25 μL of compound solution was added to 10 μL of 200 nM PAD4 in assay buffer (100 mM Tris-HCl pH 7.6, 2 mM DTT). After 5 mins, 10 μL of 100 μM of substrate in buffer (100 mM Tris-HCl pH 7.6, 2 mM DTT, 2 mM CaCl2) was added and the reaction incubated for 60 mins at 37 ° C. The enzymatic reaction was quenched by addition of 40 μl of 5% TCA in ACN (1.7% TCA final concentration) stop solution. Arginine containing substrate and citrulline containing product (+1 Da mass shift) were subjected to solid phase extraction on Agilent RapidFire (RF) 300 system and detected on a coupled, triple quadrupole Agilent 6460 QQQ mass spectrometry (MS) device under application of multiple reaction monitoring (MRM) for quantitation.

mPAD4 = mPAD4 (Mus musculus, UniProt Q9Z183); test: PAD4 inhibition assay, RapidFire mass spectrometry (mPAD4 RFMS); format: biochemical
Sequence of mPAD4 (Q9Z183 whole entry): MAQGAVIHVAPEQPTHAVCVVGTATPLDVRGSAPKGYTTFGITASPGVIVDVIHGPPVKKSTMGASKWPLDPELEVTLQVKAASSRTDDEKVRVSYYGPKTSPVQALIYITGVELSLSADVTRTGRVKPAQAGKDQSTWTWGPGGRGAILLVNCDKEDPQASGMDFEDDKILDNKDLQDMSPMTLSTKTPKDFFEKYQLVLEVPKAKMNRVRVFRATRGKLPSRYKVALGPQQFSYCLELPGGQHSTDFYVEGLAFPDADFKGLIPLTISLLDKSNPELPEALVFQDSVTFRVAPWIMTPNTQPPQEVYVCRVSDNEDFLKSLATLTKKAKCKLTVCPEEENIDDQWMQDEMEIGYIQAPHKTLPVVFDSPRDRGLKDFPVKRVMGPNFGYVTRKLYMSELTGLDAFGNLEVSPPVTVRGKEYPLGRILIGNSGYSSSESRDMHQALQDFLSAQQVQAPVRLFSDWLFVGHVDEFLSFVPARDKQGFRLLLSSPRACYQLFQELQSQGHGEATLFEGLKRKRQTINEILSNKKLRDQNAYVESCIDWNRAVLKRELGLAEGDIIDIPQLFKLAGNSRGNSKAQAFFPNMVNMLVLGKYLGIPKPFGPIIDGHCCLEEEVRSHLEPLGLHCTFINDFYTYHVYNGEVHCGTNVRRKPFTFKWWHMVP

[1] = 100 nM hPAD4 enzyme, 50 μM substrate peptide, 65 mins at 37° C., read-out: hPAD4 RFMS IC50
[2] = pIC50=-log(IC50), read-out: hPAD4 RFMS pIC50 (converted)
[3] = pIC50=-log(IC50), read-out: mPAD4 RFMS pIC50 (converted)

Sequence of hPAD4 (Q9UM07 whole entry): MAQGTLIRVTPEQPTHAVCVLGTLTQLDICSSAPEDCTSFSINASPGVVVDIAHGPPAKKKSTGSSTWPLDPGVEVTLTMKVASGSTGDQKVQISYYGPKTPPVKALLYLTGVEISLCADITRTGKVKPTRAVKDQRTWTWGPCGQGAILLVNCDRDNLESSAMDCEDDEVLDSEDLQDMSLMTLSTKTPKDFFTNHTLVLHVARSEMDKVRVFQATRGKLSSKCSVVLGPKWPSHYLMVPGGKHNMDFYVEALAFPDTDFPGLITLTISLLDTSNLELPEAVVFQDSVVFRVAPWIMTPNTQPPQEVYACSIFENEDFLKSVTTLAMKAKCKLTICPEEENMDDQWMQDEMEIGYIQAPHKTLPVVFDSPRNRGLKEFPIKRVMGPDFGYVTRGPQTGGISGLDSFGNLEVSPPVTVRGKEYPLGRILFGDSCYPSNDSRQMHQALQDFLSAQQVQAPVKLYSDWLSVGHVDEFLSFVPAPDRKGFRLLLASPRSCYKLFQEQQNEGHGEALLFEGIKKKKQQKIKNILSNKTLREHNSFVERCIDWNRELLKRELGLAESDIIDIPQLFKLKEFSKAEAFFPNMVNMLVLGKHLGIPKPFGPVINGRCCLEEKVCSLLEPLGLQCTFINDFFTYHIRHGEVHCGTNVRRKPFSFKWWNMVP

SMILES | IC50 (hPAD4; [1]) | IC50 (hPAD4; [2]) | IC50 (mPAD4; [3]) | IC50 (mPAD4; read-out: mPAD4 RFMS IC50) | hPAD4 RFMS pIC50 (hPAD4; pIC50=-log(IC50))
Cn1c(-c2cc3cccnc3n2CC2CC2)nc2cc(C(=O)N3CC[C@H]4CCN[C@H]4C3)cnc21 (single isomer, unassigned) [Compound I-9, hydrochloride] | ≥ 10 µM | 10 to 100 µM | – | – | –
Cn1c(-c2cc3cccnc3n2CC2CC2)nc2cc(C(=O)N3CC[C@@H]4CCN[C@@H]4C3)cnc21 (single isomer, unassigned) [Compound I-10, hydrochloride] | 1 to 5 µM | 1 to 10 µM | 1 to 10 µM | 5 to 10 µM | –
Cn1c(-c2cc3cccnc3n2CC(F)(F)F)nc2cc(C(=O)N3CC[C@@H]4CCN[C@@H]4C3)cnc21 [Compound I-1] | ≥ 10 µM | 10 to 100 µM | – | – | –
Cn1c(-c2cc3cccnc3n2CC(F)(F)F)nc2cc(C(=O)N3CC[C@H]4CCN[C@H]4C3)cnc21 [Compound I-3] | ≥ 10 µM | – | – | – | –
CCn1c(-c2nc3cc(C(=O)N4CCC[C@@H](N)C4)cnc3n2CC)cc2cccnc21 [Compound I-4] | 5 to 10 µM | 1 to 10 µM | 1 to 10 µM | 1 to 5 µM | –
Cn1c(-c2cc3cccnc3n2CC(F)(F)F)nc2cc(C(=O)N3CCC[C@@H](N)C3)cnc21 [Compound I-5] | ≥ 10 µM | 10 to 100 µM | – | – | –
Cn1c(-c2cc3cccnc3n2CC(F)(F)F)nc2cc(C(=O)N3CCC4CCNC4C3)cnc21 (centres unmarked) [Compound I-6] | ≥ 10 µM | 10 to 100 µM | – | – | –
Cn1c(-c2cc3cccnc3n2CC2CC2)nc2cc(C(=O)N3CCC[C@@H](N)C3)cnc21 [Compound I-7] | 1 to 5 µM | 1 to 10 µM | ≤ 1 µM | ≤ 1 µM | –
Cn1c(-c2cc3cccnc3n2CC2CC2)nc2cc(C(=O)N3CCC4CCNC4C3)cnc21 (centres unmarked) [Compound I-8, 2-[1-(cyclopropylmethyl)-1H-pyrrolo[2,3-b]pyridin-2-yl]-3-methyl-6-{octahydro-1H-pyrrolo[2,3-c]pyridine-6-carbonyl}-3H-imidazo[4,5-b]pyridine hydrochloride] | 5 to 10 µM | 1 to 10 µM | – | – | –
Cn1c(-c2cc3cccnc3n2CC(C)(F)F)nc2cc(C(=O)N3CCC[C@@H](N)C3)cnc21 [Compound I-11] | 5 to 10 µM | 1 to 10 µM | 1 to 10 µM | 5 to 10 µM | –
N[C@@H]1CCCN(C(=O)c2cnc3c(c2)nc(-c2cc4cccnc4n2CC2CC2)n3CC(F)F)C1 [Compound I-12] | 1 to 5 µM | 1 to 10 µM | 1 to 10 µM | 1 to 5 µM | –
Cn1c(-c2cc3cccnc3n2CC2CC2)nc2cc(C(=O)N3C[C@@H](N)C[C@H](F)C3)cnc21 [Compound I-13] | 1 to 5 µM | 1 to 10 µM | ≤ 1 µM | ≤ 1 µM | –
Cn1c(-c2cc3cc(F)c(F)nc3n2CC2CC2)nc2cc(C(=O)N3CCC[C@@H](N)C3)cnc21 [Compound I-14] | 1 to 5 µM | 1 to 10 µM | ≤ 1 µM | ≤ 1 µM | –
CCn1c(-c2cc3ccc(OC)nc3n2CC2CC2)nc2cc(C(=O)N3CCC[C@@H](N)C3)cnc21 [Compound I-16] | ≤ 1 µM | ≤ 1 µM | ≤ 1 µM | ≤ 1 µM | –
Cn1c(-c2cc3cccnc3n2CC(F)(F)F)nc2cc(C(=O)N3CCC4CCNC4C3)cnc21 (centres unmarked) [Compound I-19] | ≥ 10 µM | – | – | – | –
Cn1c(-c2cc3cccnc3n2CC(F)(F)F)nc2cc(C(=O)N3CC[C@H]4CCN[C@H]4C3)cnc21 [Compound I-20] | ≥ 10 µM | 10 to 100 µM | – | – | –
Cn1c(-c2cc3cccnc3n2CC(F)(F)F)nc2cc(C(=O)N3CC[C@@H]4CCN[C@@H]4C3)cnc21 [Compound I-21] | ≥ 10 µM | – | – | – | E/F

Further lines, results first:

IC50 (hPAD4; [1]) | IC50 (hPAD4; [2]) | IC50 (mPAD4; [3]) | IC50 (mPAD4; read-out: mPAD4 RFMS IC50) | hPAD4 RFMS pIC50 (hPAD4; pIC50=-log(IC50)) | SMILES
1 to 5 µM | 1 to 10 µM | ≤ 1 µM | ≤ 1 µM | – | CCn1c(-c2cc3cccnc3n2CC2CC2)nc2cc(C(=O)N3CCC[C@@H](N)C3)cnc21 [Compound I-22]
5 to 10 µM | – | – | – | – | Cn1c(-c2cc3cccnc3n2CC2CC2)nc2cc(C(=O)N3CCC4CCNC4C3)cnc21 (centres unmarked) [Compound I-24]
≥ 10 µM | 10 to 100 µM | – | – | – | Cn1c(-c2cc3cccnc3n2CC2CC2)nc2cc(C(=O)N3CC[C@H]4CCN[C@H]4C3)cnc21 [Compound I-25]
1 to 5 µM | 1 to 10 µM | 1 to 10 µM | 5 to 10 µM | – | Cn1c(-c2cc3cccnc3n2CC2CC2)nc2cc(C(=O)N3CC[C@@H]4CCN[C@@H]4C3)cnc21 [Compound I-26]
1 to 5 µM | 1 to 10 µM | ≤ 1 µM | ≤ 1 µM | – | Cn1c(-c2cc3cc(F)c(F)cc3n2CC2CC2)nc2cc(C(=O)N3CCC[C@@H](N)C3)cnc21 [Compound I-30]
1 to 5 µM | 1 to 10 µM | 1 to 10 µM | 5 to 10 µM | – | CC1CCC(N)CN1C(=O)c1cnc2c(c1)nc(-c1cc3cccnc3n1CC1CC1)n2C (centres unmarked) [Compound I-32]
≤ 1 µM | ≤ 1 µM | ≤ 1 µM | ≤ 1 µM | – | CCn1c(-c2nc3cc(C(=O)N4C[C@H]5CC[C@@H]4[C@@H]5N)cnc3n2C)cc2ccc(OC)nc21 [Compound I-37]
1 to 5 µM | 1 to 10 µM | 1 to 10 µM | 1 to 5 µM | – | CCn1c(-c2nc3cc(C(=O)N4C[C@H]5CC[C@@H]4[C@@H]5N)cnc3n2C)cc2cccnc21 [Compound I-39]
≤ 1 µM | ≤ 1 µM | ≤ 1 µM | ≤ 1 µM | – | Cn1c(-c2cc3cccnc3n2CC2CC2)nc2cc(C(=O)N3C[C@H]4CC[C@@H]3[C@@H]4N)cnc21 [Compound I-41]
≥ 10 µM | 10 to 100 µM | 1 to 10 µM | 1 to 5 µM | – | CCn1c(-c2nc3cc(C(=O)N4CCC[C@@H](N)C4)cnc3n2CCOC)cc2cccnc21 [Compound I-42]
1 to 5 µM | 1 to 10 µM | 1 to 10 µM | 1 to 5 µM | – | CCn1c(-c2nc3cc(C(=O)N4C[C@H]5CC[C@@H]4[C@@H]5N)cnc3n2CCOC)cc2cccnc21 [Compound I-43]
≤ 1 µM | ≤ 1 µM | ≤ 1 µM | ≤ 1 µM | – | COc1ccc2cc(-c3nc4cc(C(=O)N5C[C@H]6CC[C@@H]5[C@@H]6N)cnc4n3C)n(CC3CC3)c2n1 [Compound I-44]
≤ 1 µM | ≤ 1 µM | 1 to 10 µM | 1 to 5 µM | – | COCCn1c(-c2cc3cccnc3n2CC2CC2)nc2cc(C(=O)N3C[C@H]4CC[C@@H]3[C@@H]4N)cnc21 [Compound I-45]
1 to 5 µM | 1 to 10 µM | 1 to 10 µM | 1 to 5 µM | – | COCCn1c(-c2cc3cccnc3n2CC2CC2)nc2cc(C(=O)N3CCC[C@@H](N)C3)cnc21 [Compound I-46]
≤ 1 µM | ≤ 1 µM | ≤ 1 µM | ≤ 1 µM | – | COCCn1c(-c2cc3ccc(OC)nc3n2CC2CC2)nc2cc(C(=O)N3C[C@H]4CC[C@@H]3[C@@H]4N)cnc21 [Compound I-47]
≤ 1 µM | ≤ 1 µM | 1 to 10 µM | 1 to 5 µM | – | CCn1c(-c2nc3cc(C(=O)N4C[C@H]5CC[C@@H]4[C@@H]5N)cnc3n2CCOC)cc2ccc(OC)nc21 [Compound I-48]
5 to 10 µM | 1 to 10 µM | 1 to 10 µM | 1 to 5 µM | – | CCn1c(-c2nc3cc(C(=O)N4CCC[C@@H](N)C4)cnc3n2CCOC)cc2ccc(OC)nc21 [Compound I-49]
≤ 1 µM | ≤ 1 µM | ≤ 1 µM | ≤ 1 µM | – | CO[C@]1(C)C[C@H](Cn2c(-c3cc4cccnc4n3CC3CC3)nc3cc(C(=O)N4C[C@H]5CC[C@@H]4[C@@H]5N)cnc32)C1 [Compound I-50]
≤ 1 µM | ≤ 1 µM | ≤ 1 µM | ≤ 1 µM | – | CCn1c(-c2nc3cc(C(=O)N4C[C@H]5CC[C@@H]4[C@@H]5N)cnc3n2C[C@H]2C[C@@](C)(OC)C2)cc2ccc(OC)nc21 [Compound I-51]
≤ 1 µM | ≤ 1 µM | ≤ 1 µM | ≤ 1 µM | – | Cn1c(-c2cc3ccc(C(F)(F)F)nc3n2CC2CC2)nc2cc(C(=O)N3C[C@H]4CC[C@@H]3[C@@H]4N)cnc21 [Compound I-52]
≤ 1 µM | ≤ 1 µM | ≤ 1 µM | ≤ 1 µM | – | COc1ccc2cc(-c3nc4cc(C(=O)N5C[C@H]6CC[C@@H]5[C@@H]6N)cnc4n3C[C@H]3C[C@@](C)(OC)C3)n(CC3CC3)c2n1 [Compound I-53]
≤ 1 µM | ≤ 1 µM | ≤ 1 µM | ≤ 1 µM | – | N[C@@H]1[C@@H]2CC[C@H]1N(C(=O)c1cnc3c(c1)nc(-c1cc4cccnc4n1CC1CC1)n3CC(F)F)C2 [Compound I-54]
